According to publication PMC7884015 (Journal of Agricultural and Food Chemistry, 2021):
Entries after “also recorded” stand apart in the source; their conditions may differ. Like-named read-outs stand apart in the source and are kept apart here.

What was measured:
[1] = for Metabolization percentage, day 4 to 5: quantity in whole bees vs intake during the last 24 h of feeding
Text: (§1) Honey bees (A. mellifera L) were collected from brood frames in the apiary of Aarhus University, Flakkebjerg. The collected bees were fed on 50% sucrose for 3 days. On day 3, the bees were divided into eight experimental groups placed in feeding cages (N = 49–73). The exact numbers of bees in the individual cages were counted at the end of the experiment. A portion of bees were also collected for the analysis of the presence of the compounds prior to the experiment. Thus, these bees served as a negative control group. The feeding boxes were placed in incubators in complete darkness under the following conditions: 34 °C; 38–40% relative humidity. Information about plants known to produce the phytochemicals fed to the honey bees is included in the Supporting Information (Table S1). The prepared solutions were placed in 1.5 mL Eppendorf tubes, and the bottom of the tubes was pierced with a sterilized needle to allow the bees to feed on the solution. The feeding solutions were replaced every 24 h to prevent compound degradation and measure food intake. Dead bees were counted and removed daily. On day 5, the feeding containers were removed, and 2 h later, the bees were anesthetized with CO2 and killed by freezing.
Twelve individual bees from each of the experimental groups were rinsed with water and placed individually in 1.5 mL Eppendorf tubes. The bees were then lyophilized and transferred individually to Falcon tubes for extraction. […] The extraction solvents were added, and the bees were extracted by shaking using an Intelli-Mixer for 1 h (60 rpm). […] After extraction, the samples were centrifuged (12 min, 4 °C, 4500 rpm). […] Extracts of bees fed on triptolide were further purified by solid phase extraction (SPE) using a protocol modified from Wang et al.[30] One milliliter of the methanol extracts was diluted to 10 mL with Milli-Q water, 100 μL of formic acid was added, and the diluted extracts were loaded onto 30 mg Oasis HLB prime SPE (Waters, Hedehusene, Denmark) cartridges without prior column conditioning. The SPE cartridges were first washed with 1 mL of 2% ammonium hydroxide in 1:9 methanol/water and then with 1 mL of 2% acetic acid in 3:7 methanol/water, and triptolide was eluted from the cartridges with 1 mL of 4:1 methanol/water. Prior to HPLC-MS/MS analyses, 225 μL of the SPE eluates was diluted with 275 μL of 5 mM ammonium formate and filtered using a syringe filter (Kinesis KX PTFE syringe filter 13 mm, 0.22 μm, Mikrolab, Aarhus, Denmark).
(§2) Prior to the analysis, the compound-dependent mass spectrometer parameters of the eight compounds were optimized by infusion. For each compound, two MRM transitions were monitored (Table 2); one transition was used for quantification, whereas the other was used as a qualifier MRM to ensure correct identification.
(§3) The compounds were separated on a Synergy Fusion column (150 mm × 2 mm, 4 μm; Phenomenex, Værløse, Denmark) with a flow rate of 0.4 mL/min, and the gradient was as follows: 0–2 min: 100% A; 2–18 min: 100–30% A; 18–19 min: 30–0% A; 19–22 min: 0% A; 22–23 min: 0–100% A and 23–30 min: 100% A. Source parameters were as follows: curtain gas (CUR), 45 psi; collision gas (CAD), medium; temperature (TEM), 400 °C; ion source gas 1 (GS 1), 90 psi; ion source gas 2 (GS 2), 30 psi; and ionspray voltage (IS), 4200 V. Amygdalin was analyzed using the same source parameters and chromatographic method as described above, but in negative mode. […] The column was a Hypersil BDS C18 (250 mm × 2.1 mm, 5 μm; Thermo Fisher, Hvidovre, Denmark), and the solvent system consisted of 5 mM ammonium formate (A) and methanol (B). […] An injection volume of 30 μL was used for the triptolide analyses, whereas 20 and 30 μL were injected for the remaining compounds for whole and dissected bees, respectively.

[2] = in vivo; details: for Bee without gut %: percentage of total quantity recovered in the dissected bee found in the bee without gut; for Bee without gut % / Gut %: N = 6; for Gut %: percentage of total quantity recovered in the dissected bee found in the gut
Text: as §1
Six bees from each of the experimental groups were defrosted and rinsed with water, and their heads were removed with a scalpel to cut the esophagus. The complete alimentary canal (hereafter “gut”) was removed by grabbing the stinger with tweezers and gently pulling until the alimentary canal was released.[31] The two samples consisting of the gut and the rest of the bee without the gut (head, thorax, and abdomen; hereafter, “bee without gut”) were lyophilized separately in 1.5 mL Eppendorf tubes. Upon drying, the samples comprising the bees without guts were transferred to the extraction Falcon tubes, pulverized, and extracted as described above for the whole bees. Samples comprising the guts were instead pulverized directly in the 1.5 mL Eppendorf tubes by adding two metal beads and placing these tubes in the Geno/Grinder using a modified rack. Because of the small sample size, the pulverized guts were then gradually transferred to the extraction Falcon tubes using the extraction solvents to flush the material from the Eppendorf tubes. The remaining parts of the extraction followed the protocols described above for whole bees.
as §2, §3
In the individual dissected bees (N = 6), the sum of the quantities recovered in the guts and the bees without guts designates the total quantity of compound recovered in that individual.

[3] = test system: Crithidia bombi; details: bumble bees; cited from earlier work
[4] = test system: honey bee immune functions (antimicrobial peptide hymenoptaecin); parameters: method as in PMID 28981688; details: cited from earlier work
[5] = test system: honey bees; details: cited from earlier work
[6] = test system: honey bee memory retrieval; details: cited from earlier work
[7] = comparison between the eight phytochemicals, P < 0.05
[8] = whole bees N = 12, sampled day 5, 2 h after feeding was terminated, ± SD
[9] = dissected bees N = 6, day 5, ± SD
[10] = in vivo, po, oral bioavailability (%), percentage of the total ingested quantity over the 5-day feeding period recovered in the bees without guts, ± SD, dissected bees N = 6
[11] = percentage of the total ingested quantity over the 5-day feeding period recovered in the bees without guts, ± SD, dissected bees N = 6
[12] = honey bee (Apis mellifera), in vivo, po, oral bioavailability (%), percentage of the total ingested quantity over the 5-day feeding period recovered in the bees without guts, ± SD, dissected bees N = 6
[13] = honey bee (Apis mellifera), in vivo

CCN1C[C@]2(COC(=O)c3ccccc3N3C(=O)C[C@H](C)C3=O)CC[C@H](OC)[C@@]34[C@@H]5C[C@H]6[C@H](OC)[C@@H]5[C@](O)(C[C@@H]6OC)[C@@](O)([C@@H](OC)[C@H]23)[C@@H]14 [methyllycaconitine, Methyllycaconitine]
Relative metabolization rate [1, 7]: metabolized significantly faster
Mean concentration (ng/bee) in whole bees [1, 8]: 0.3 ± 0.2 ng/bee
Bee without gut (ng/bee) [2, 9]: 0.2 ± 0.1 ng/bee
Gut (ng/bee) [2, 9]: 0.05 ± 0.03 ng/bee
bioavailability [2, 10]: < 10%
Bee without gut % ([2]; ± SD): 81 ± 13%
Gut % ([2]; ± SD): 19 ± 13%

CC(C)[C@]12O[C@H]1[C@@H]1O[C@]13[C@]1(O[C@H]1C[C@H]1C4=C(CC[C@@]13C)C(=O)OC4)[C@@H]2O [triptolide, Triptolide]
Relative metabolization rate [1, 7]: metabolized significantly slower
Metabolization percentage, day 4 to 5 [1]: significantly lower; also recorded: negative metabolization percentages
Metabolization percentage, day 1 to 5 ([1]; quantity in whole bees vs total intake over the 5-day feeding period, day 5, 2 h after feeding was terminated): significantly lower
Mean concentration (ng/bee) in whole bees [1, 8]: 4.4 ± 2.8 ng/bee
Bee without gut (ng/bee) [2, 9]: 3.1 ± 1.5 ng/bee
Gut (ng/bee) [2, 9]: 0.6 ± 0.2 ng/bee
bioavailability [2, 10]: 21%
oral bioavailability (%) [2, 11]: 20.6 ± 9.9%
Bee without gut % ([2]; ± SD): 79 ± 11%
Gut % ([2]; ± SD): 21 ± 11%

OCC1=C[C@@H](O)[C@@H]2C=CO[C@@H](O[C@@H]3O[C@H](CO)[C@@H](O)[C@H](O)[C@H]3O)[C@H]12 [aucubin, Aucubin]
Relative metabolization rate [1, 7]: metabolized significantly slower
Metabolization percentage, day 4 to 5 [1]: significantly lower; also recorded: negative metabolization percentages
Mean concentration (ng/bee) in whole bees [1, 8]: 16400 ± 5640 ng/bee
bioavailability [2, 12]: 13%
bioavailability [2, 10]: 13.1 ± 3.8%
Effect on levels of the bumble bee gut protozoan Crithidia bombi [3]: significantly decreased the levels
Effect on expression of the antimicrobial peptide hymenoptaecin ([4]; aucubin feeding): significantly increased the expression
Effect on honey bee immune functions [4]: significantly stimulated honey bee immune functions

C/C=C1/C[C@@H](C)[C@@](C)(O)C(=O)OC/C2=C/CN(C)CC[C@@H](OC1=O)C2=O [senkirkine, Senkirkine]
Relative metabolization rate [1, 7]: metabolized significantly faster
Mean concentration (ng/bee) in whole bees [1, 8]: 7.4 ± 3.5 ng/bee
Bee without gut (ng/bee) [2, 9]: 7.0 ± 4.9 ng/bee
Gut (ng/bee) [2, 9]: 2.3 ± 3.0 ng/bee
bioavailability [2, 12]: < 10%
bioavailability [2, 10]: 9%
oral bioavailability (%) [2, 11]: 8.9 ± 6.3%
Bee without gut % ([2]; ± SD): 73 ± 28%
Gut % ([2]; ± SD): 27%

C=C[C@]12CN(C)[C@@H]3[C@H]4CO[C@H](C[C@H]41)[C@]1(C(=O)Nc4ccccc41)[C@@H]32 [gelsemine, Gelsemine]
Relative metabolization rate [1, 7]: metabolized significantly faster
Mean concentration (ng/bee) in whole bees [1, 8]: 508 ± 174 ng/bee
Bee without gut (ng/bee) [2, 9]: 461 ± 415 ng/bee
Gut (ng/bee) [2, 9]: 106 ± 67 ng/bee
bioavailability at 5 day [2, 10]: 6%
oral bioavailability (%) [2, 11]: 6.1 ± 5.5%
Bee without gut % ([2]; ± SD): 71 ± 32%
Gut % ([2]; ± SD): 30%
Gut % ([2]; ± SD, listed as Gelsemine): 30 ± 32%
Effect on levels of the bumble bee gut protozoan Crithidia bombi [3]: significantly decreased the levels

N#C[C@H](O[C@@H]1O[C@H](CO[C@@H]2O[C@H](CO)[C@@H](O)[C@H](O)[C@H]2O)[C@@H](O)[C@H](O)[C@H]1O)c1ccccc1 [amygdalin, Amygdalin]
Relative metabolization rate [1, 7]: metabolized significantly faster
Mean concentration (ng/bee) in whole bees [1, 8]: 238 ± 218 ng/bee
LD50 [5]: 0.003%
Bee without gut (ng/bee) [2, 9]: 833 ± 511 ng/bee
Gut (ng/bee) [2, 9]: 78 ± 34 ng/bee
bioavailability [2, 10]: 31 ± 19%
Bee without gut % ([2]; ± SD): 90 ± 5%
Gut % ([2]; ± SD): 11%

CN1[C@@H]2CC[C@H]1C[C@@H](OC(=O)C(CO)c1ccccc1)C2 (stereo partly shown) [atropine, Atropine, reference compound]
Consumed concentration that can impair honey bee memory retrieval [6]: above 10^–2 M
Mean concentration (ng/bee) in whole bees [1, 8]: 236 ± 76 ng/bee
Bee without gut (ng/bee) [2, 9]: 89 ± 65 ng/bee
Gut (ng/bee) [2, 9]: 90 ± 17 ng/bee
Bee without gut % ([2]; ± SD): 46 ± 15%
Gut % ([2]; ± SD): 54 ± 15%

C/C=C1/C[C@@H](C)[C@@](C)(O)C(=O)OCC2=CCN3CC[C@@H](OC1=O)[C@@H]23 [senecionine, Senecionine]
Mean concentration (ng/bee) in whole bees [1, 13]: 4.9 ± 1.6 ng/bee
Relative metabolization rate ([1]; in vivo): metabolized significantly faster
Bee without gut (ng/bee) [2, 13]: 3.4 ± 2.2 ng/bee
Gut (ng/bee) [2, 13]: 2.3 ± 1.3 ng/bee
bioavailability ([2]; honey bee (Apis mellifera), in vivo, po, oral bioavailability (%)): < 10%
bioavailability ([2]; in vivo, po, oral bioavailability (%)): 4 ± 2.6%
